This note sets out measurements from ChEMBL document CHEMBL4825758, “Discovery of G Protein-Biased Antagonists against 5-HT7R” (J Med Chem, 2021).

Structures are written as SMILES.

The nature of the series: Metabolic stability in human liver microsomes assessed as parent compound remaining at 1 uM preincubated for 5 mins followed by NADPH regeneration system addition and measured after 30 mins by LC-MS analysis. Format: ADME, Microsome. The following applies: time 35 min, read-out: Stabilty.

On to `Clc1cccc(-c2n[nH]cc2N2CCCNCC2)c1`, for which the remaining at 0.5 h, 1 µM turned out to be 27.5%.
